Measurements reported in ChEMBL document CHEMBL1201862, “PubChem BioAssay data set” (2004).
Blank lines part the entries; values can stand above or below the compound they belong to. Calls of active or inactive are those of the source.

Columns and labels:
[1] = target: 72 kDa type IV collagenase (Homo sapiens, UniProt P08253); experiment: Dose Response validation of uHTS RPN11 inhibitor hits using a MMP-2 Fluorescence assay.; format: functional
X-box-binding protein 1 = X-box-binding protein 1 (Homo sapiens, UniProt P17861); format: functional, Cricetulus griseus;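 also: confirmatory dose-response counter-screen serving a CHOP assay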
X-box-binding protein 1, sequence (P17861 whole entry): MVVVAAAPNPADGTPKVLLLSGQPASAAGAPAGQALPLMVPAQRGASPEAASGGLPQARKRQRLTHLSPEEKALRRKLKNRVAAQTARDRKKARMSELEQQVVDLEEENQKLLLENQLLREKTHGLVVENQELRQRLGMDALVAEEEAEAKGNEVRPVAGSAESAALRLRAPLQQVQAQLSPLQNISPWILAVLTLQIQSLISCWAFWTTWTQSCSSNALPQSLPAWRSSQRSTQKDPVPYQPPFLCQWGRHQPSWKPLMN

[2] = target: 26S proteasome non-ATPase regulatory subunit 14 (Homo sapiens, UniProt O00487); experiment: inhibition of proteasome subunit RPN11 – biochemical, fluorescence polarization, uHTS hits, confirmation (AID 602368); format: functional
26S proteasome non-ATPase regulatory subunit 14, sequence (O00487 whole entry): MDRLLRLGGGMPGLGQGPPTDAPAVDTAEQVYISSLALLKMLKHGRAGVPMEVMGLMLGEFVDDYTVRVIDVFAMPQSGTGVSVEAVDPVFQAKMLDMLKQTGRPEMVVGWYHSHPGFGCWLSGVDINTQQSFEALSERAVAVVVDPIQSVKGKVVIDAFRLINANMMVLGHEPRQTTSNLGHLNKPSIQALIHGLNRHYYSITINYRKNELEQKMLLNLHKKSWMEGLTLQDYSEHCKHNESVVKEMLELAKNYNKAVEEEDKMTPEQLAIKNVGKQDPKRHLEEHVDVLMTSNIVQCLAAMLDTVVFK

Prothrombin = Prothrombin (Bos taurus, UniProt P00735); experiment: thrombin inhibition, dose response, biochemical, fluorescence polarization, uHTS hits (AID 602369); format: functional
Salmon testes DNA = experiment: DNA intercalators displacing acridine orange, dose response, artefact control for KSHV LANA DNA-binding inhibitor project, biochemical, fluorescence polarization, cherry-picked samples, set 2 (AID 504727); parameters: species or system Salmonidae
Keap1/Nrf2 = Keap1/Nrf2 (Homo sapiens, UniProt Q14145); experiment: Keap1-Nrf2 protein-protein interaction inhibitors, dose response, biochemical, fluorescence polarization, cherry-picked samples (AID 588683)
Keap1/Nrf2, sequence (Q16236 whole entry): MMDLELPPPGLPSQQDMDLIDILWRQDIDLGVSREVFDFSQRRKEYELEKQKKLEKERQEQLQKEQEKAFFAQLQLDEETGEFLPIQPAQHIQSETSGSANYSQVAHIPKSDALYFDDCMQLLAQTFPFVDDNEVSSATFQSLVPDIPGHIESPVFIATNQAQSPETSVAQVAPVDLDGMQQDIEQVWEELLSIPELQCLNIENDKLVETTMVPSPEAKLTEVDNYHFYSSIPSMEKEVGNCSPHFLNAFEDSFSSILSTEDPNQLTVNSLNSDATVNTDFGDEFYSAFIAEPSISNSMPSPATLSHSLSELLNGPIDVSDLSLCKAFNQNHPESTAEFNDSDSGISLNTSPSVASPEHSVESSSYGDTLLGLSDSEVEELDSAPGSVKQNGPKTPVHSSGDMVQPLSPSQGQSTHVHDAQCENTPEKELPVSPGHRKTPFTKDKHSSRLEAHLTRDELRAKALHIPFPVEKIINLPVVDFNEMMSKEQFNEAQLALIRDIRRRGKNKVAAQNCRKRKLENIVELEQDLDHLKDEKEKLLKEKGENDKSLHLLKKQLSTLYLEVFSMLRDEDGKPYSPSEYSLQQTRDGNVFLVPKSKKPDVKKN
Keap1/Nrf2, sequence (Q14145 whole entry): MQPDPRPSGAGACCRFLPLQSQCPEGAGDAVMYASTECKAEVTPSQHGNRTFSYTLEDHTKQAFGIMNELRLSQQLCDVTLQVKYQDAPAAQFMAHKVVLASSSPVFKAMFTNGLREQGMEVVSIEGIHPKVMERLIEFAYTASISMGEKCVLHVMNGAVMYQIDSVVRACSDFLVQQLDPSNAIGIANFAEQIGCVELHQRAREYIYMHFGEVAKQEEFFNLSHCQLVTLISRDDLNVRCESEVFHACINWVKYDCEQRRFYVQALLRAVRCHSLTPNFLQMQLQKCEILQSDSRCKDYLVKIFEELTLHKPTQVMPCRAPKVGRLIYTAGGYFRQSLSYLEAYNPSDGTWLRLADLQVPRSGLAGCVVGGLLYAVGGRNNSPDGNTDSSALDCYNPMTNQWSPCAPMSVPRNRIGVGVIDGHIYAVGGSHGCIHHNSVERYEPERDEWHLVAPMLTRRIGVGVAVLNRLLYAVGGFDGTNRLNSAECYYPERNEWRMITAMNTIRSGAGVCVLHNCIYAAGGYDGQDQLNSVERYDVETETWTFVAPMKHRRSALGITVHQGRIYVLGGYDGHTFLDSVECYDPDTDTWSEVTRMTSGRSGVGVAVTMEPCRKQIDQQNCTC

[3] = target: T1, Corticotropin-releasing factor receptor 2/Corticotropin-releasing factor-binding protein (Homo sapiens, UniProt P24387+Q13324); experiment: activators of CRF receptor 2 with binding protein – uHTS hits, confirmation (AID 602473); format: functional; details: read-out: EC50_Mean
T1 sequence (Q13324 whole entry): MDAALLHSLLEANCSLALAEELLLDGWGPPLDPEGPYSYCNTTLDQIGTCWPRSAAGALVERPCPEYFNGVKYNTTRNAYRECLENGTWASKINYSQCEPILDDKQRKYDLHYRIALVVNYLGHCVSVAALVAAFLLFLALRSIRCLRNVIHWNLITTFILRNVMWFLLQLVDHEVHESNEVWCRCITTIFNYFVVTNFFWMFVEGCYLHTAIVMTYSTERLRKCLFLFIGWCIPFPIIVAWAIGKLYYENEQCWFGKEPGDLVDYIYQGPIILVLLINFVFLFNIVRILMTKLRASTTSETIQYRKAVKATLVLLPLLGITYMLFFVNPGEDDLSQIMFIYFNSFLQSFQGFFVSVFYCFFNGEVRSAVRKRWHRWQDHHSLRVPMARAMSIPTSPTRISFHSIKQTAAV
T1 sequence (P24387 whole entry): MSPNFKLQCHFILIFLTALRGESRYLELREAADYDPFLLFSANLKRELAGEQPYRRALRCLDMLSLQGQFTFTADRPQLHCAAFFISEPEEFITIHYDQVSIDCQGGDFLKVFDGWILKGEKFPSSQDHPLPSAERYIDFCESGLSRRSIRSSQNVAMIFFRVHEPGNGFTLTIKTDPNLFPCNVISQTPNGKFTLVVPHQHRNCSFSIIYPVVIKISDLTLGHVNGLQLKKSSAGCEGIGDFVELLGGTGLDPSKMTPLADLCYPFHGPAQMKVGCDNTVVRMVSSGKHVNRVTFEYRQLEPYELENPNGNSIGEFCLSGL

ORF 73 = target: T2, ORF 73 (Human herpesvirus 8, UniProt O40947); experiment: inhibitors of C-LANA binding to LBS DNA, dose response, biochemical, fluorescence polarization, cherry-picked samples (AID 504725); parameters: species or system Human gammaherpesvirus 8;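 also: fluorescence polarization of a labeled DNA duplex reporting LANA DNA binding; potency is for inhibitors that block LANA binding to the DNA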
T2 sequence (O40947 whole entry): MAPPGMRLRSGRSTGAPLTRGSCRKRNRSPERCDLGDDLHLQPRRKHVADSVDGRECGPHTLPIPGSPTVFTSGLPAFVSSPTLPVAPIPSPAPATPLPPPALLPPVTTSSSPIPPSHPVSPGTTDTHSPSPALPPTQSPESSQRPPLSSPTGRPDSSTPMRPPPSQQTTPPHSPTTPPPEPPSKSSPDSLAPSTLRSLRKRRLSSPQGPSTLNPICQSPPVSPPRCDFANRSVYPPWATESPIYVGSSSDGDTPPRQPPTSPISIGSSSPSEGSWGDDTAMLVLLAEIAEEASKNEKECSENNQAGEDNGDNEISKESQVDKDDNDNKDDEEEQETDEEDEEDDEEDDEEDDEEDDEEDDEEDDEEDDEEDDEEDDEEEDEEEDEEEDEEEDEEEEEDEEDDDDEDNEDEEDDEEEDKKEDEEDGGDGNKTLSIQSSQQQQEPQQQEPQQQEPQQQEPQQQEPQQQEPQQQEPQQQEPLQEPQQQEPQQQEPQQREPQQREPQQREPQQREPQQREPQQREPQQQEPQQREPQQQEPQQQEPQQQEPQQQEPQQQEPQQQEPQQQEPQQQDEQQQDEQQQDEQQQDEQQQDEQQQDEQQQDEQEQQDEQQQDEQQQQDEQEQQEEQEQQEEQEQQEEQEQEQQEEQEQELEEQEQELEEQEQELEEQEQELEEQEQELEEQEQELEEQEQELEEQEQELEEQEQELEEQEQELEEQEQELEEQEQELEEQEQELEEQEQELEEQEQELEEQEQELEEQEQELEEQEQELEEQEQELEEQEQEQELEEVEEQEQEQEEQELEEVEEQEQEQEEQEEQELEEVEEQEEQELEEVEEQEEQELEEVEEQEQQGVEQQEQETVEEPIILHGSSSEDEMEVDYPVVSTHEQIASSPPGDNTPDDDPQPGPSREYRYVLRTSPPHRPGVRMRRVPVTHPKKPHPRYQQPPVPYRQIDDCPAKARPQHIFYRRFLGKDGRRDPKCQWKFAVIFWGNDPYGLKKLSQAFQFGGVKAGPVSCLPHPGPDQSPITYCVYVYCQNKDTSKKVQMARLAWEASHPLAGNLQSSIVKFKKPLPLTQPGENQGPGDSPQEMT

Phosphomannomutase 2 = target: T3, Phosphomannomutase 2 (Homo sapiens, UniProt O15305); experiment: Counter screen SAR assay for PMM2 inhibitors via a fluorescence intensity assay. [Related pubchem assays (depositor defined):AID1545, AID1574]
T3 sequence (O15305 whole entry): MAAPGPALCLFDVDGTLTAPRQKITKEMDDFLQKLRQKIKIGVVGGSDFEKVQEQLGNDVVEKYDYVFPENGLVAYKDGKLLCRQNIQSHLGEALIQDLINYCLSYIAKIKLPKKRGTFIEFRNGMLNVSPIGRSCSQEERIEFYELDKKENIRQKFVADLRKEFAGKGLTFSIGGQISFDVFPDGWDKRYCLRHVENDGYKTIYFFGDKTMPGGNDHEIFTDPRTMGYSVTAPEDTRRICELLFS

cells = format: functional, cell-based; details: PPC-1
[4] = growth suppression of beta-catenin-knockout colon cells, dose response, cell-based, HCT116, human colon tumor (AID 1045); format: functional;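 also: HCT116 colon tumor cells with beta catenin knocked out; cells exposed to compound for 60 hours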
[5] = growth suppression of PTEN-null colon cells, dose response, cell-based, HCT116 PTEN knockout (AID 1047); format: functional;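 also: HCT116 colon tumor cells with PTEN knocked out; cells exposed to compound for 60 hours before readout; potency for loss of cell viability measured by luminescence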
[6] = cytotoxicity toward NIH3T3 fibroblasts, dose response, counter-screen, cell-based, ATP luminescence, mouse fibroblasts (AID 2010); format: functional;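 also: cells exposed to compound for about 90 hours before reading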
Cytochrome P450 2C19 = Cytochrome P450 2C19 (Homo sapiens, UniProt P33261); experiment: Cytochrome panel assay with activity outcomes. Panel member name: p450-cyp2c19 Compounds with AC50 equal or less than 10 uM are considered active; format: functional; details: read-out: AC50
Cytochrome P450 2C19, sequence (P33261 whole entry): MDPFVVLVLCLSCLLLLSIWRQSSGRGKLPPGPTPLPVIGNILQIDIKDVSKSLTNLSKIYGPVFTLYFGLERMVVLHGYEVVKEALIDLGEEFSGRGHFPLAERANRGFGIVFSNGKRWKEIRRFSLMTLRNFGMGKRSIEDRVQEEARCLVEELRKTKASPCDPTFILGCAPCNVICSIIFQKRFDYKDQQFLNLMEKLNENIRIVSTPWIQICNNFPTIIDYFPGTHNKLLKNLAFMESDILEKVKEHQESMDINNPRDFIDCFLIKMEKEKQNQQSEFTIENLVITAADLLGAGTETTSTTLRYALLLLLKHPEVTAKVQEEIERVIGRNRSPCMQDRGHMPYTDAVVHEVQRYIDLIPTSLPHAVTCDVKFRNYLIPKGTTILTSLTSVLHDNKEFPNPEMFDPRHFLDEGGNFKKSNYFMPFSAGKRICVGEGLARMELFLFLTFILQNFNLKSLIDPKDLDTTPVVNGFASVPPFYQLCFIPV

MDA-MB-435 = experiment: cells; format: functional, cell-based; details: Homo sapiens

72 kDa type IV collagenase, sequence (P08253 whole entry): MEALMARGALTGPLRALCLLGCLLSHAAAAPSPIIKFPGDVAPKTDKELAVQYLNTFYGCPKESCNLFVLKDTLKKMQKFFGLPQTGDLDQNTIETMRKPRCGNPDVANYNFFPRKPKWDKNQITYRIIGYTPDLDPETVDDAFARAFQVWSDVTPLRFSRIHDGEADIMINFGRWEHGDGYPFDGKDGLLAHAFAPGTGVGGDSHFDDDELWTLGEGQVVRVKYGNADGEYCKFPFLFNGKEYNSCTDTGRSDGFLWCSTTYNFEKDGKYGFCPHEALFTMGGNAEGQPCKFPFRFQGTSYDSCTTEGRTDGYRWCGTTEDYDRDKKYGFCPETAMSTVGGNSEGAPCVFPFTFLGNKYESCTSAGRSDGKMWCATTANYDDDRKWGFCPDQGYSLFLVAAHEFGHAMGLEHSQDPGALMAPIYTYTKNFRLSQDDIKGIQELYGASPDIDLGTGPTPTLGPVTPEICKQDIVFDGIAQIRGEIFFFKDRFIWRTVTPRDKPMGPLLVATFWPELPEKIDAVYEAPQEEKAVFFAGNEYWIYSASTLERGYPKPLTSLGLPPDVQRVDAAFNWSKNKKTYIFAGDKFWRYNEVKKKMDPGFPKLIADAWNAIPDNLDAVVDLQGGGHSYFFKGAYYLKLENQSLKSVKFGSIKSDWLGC

IC50 [1]: > 100 µM (inactive) | Absolute IC50 (XBP1) (X-box-binding protein 1): 10 µM | IC50 [2]: 21.5 µM (active) | IC50 (Prothrombin): 29.7 µM (active)
SMILES: Cc1cccc(OCc2nnc(SCc3nc(O)c4ccc(C(F)(F)F)cc4n3)o2)c1

AC50 (Keap1/Nrf2): > 52 µM (inactive) | EC50 [3]: 5.5 µM (active) | AC50 (ORF 73): 172 µM (active)
SMILES: Cc1ccccc1N1C(=O)c2cccc3c(N(C)CCO)ccc(c23)C1=O
AC50 (Salmon testes DNA): 68.4 µM (active)

SMILES: CSc1nc(-c2ccc(C)cc2)nc(C(Cl)Cl)n1
IC50 (Phosphomannomutase 2): > 100 µM (inactive) | IC50 (cells): > 10 µM (inactive) | EC50 [4]: 0.714 µM (active) | EC50 [5]: 0.824 µM (active) | EC50 [6]: > 60 µM (inconclusive) | AC50 (Cytochrome P450 2C19): 0.398 µM (inconclusive) | IC50 (MDA-MB-435): > 10 µM (inactive)
